According to PMC5218480 (PLoS ONE, 2017):

System: MV-4-11 cells
Experiment: Gene expression microarray analysis (Affymetrix PrimeView) and GSEA
Type: cell-based, human
Set-up: RFU PODN (11730768_x_at) / Fold change /veh PODN (11730768_x_at) / RFU LINC00158 (11744669_a_at) / Fold change /veh LINC00158 (11744669_a_at) / RFU DUSP10 (11751237_a_at) / Fold change /veh DUSP10 (11751237_a_at) / RFU ID3 (11757404_x_at) / Fold change /veh ID3 (11757404_x_at) / RFU PLEKHG5 (11737974_s_at) / Fold change /veh PLEKHG5 (11737974_s_at) / RFU LRRC4B (11730491_at) / Fold change /veh LRRC4B (11730491_at) / RFU GIMAP4 (11747438_a_at) / Fold change /veh GIMAP4 (11747438_a_at) / RFU KRT8 (11758183_x_at) / Fold change /veh KRT8 (11758183_x_at) / RFU CNN1 (11734310_a_at) / Fold change /veh CNN1 (11734310_a_at) / RFU VPS37D (11726825_at) / Fold change /veh VPS37D (11726825_at) / RFU C10orf10 (11716522_x_at) / Fold change /veh C10orf10 (11716522_x_at) / RFU KIR2DL2 /// KIR2DL4 /// KIR2DL5A /// KIR2DL5B /// KIR2DS1 /// KIR2DS2 /// KIR2DS3 /// KIR2DS4 /// KIR3DL3 /// KIR3DL3 /// KIR3DS1 (11738374_at) / Fold change /veh KIR2DL2 /// KIR2DL4 /// KIR2DL5A /// KIR2DL5B /// KIR2DS1 /// KIR2DS2 /// KIR2DS3 /// KIR2DS4 /// KIR3DL3 /// KIR3DL3 /// KIR3DS1 (11738374_at) / RFU C1QL1 (11718748_at) / Fold change /veh C1QL1 (11718748_at) / RFU TMPRSS4 (11747572_a_at) / Fold change /veh TMPRSS4 (11747572_a_at) / RFU HAMP (11756126_x_at) / Fold change /veh HAMP (11756126_x_at) / RFU RNFT2 (11725882_a_at) / Fold change /veh RNFT2 (11725882_a_at) / RFU NR4A2 (11747474_a_at) / Fold change /veh NR4A2 (11747474_a_at) / RFU ABCC12 (11746883_a_at) / Fold change /veh ABCC12 (11746883_a_at) / RFU TMEM136 (11760407_x_at) / Fold change /veh TMEM136 (11760407_x_at) / RFU CLDN22 /// WWC2 (11732394_at) / Fold change /veh CLDN22 /// WWC2 (11732394_at) / RFU HLA-DPB1 (11760878_x_at) / Fold change /veh HLA-DPB1 (11760878_x_at) / RFU SPINT1 (11716480_a_at) / Fold change /veh SPINT1 (11716480_a_at) / RFU GAP43 (11754022_s_at) / Fold change /veh GAP43 (11754022_s_at) / RFU A4GNT (11735810_at) / Fold change /veh A4GNT (11735810_at) / RFU PRB3 (11715151_x_at) / Fold change /veh PRB3 (11715151_x_at) / RFU TUBB4B (11761932_at) / Fold change /veh TUBB4B (11761932_at) / RFU CAPN14 (11732068_a_at) / Fold change /veh CAPN14 (11732068_a_at) / RFU TMCC2 (11721928_a_at) / Fold change /veh TMCC2 (11721928_a_at) / RFU IRGQ (11745062_a_at) / Fold change /veh IRGQ (11745062_a_at) / RFU FAM174B (11720279_a_at) / Fold change /veh FAM174B (11720279_a_at) / RFU TMPRSS4 (11748680_a_at) / Fold change /veh TMPRSS4 (11748680_a_at) / RFU FAM212B (11763350_a_at) / Fold change /veh FAM212B (11763350_a_at) / RFU PLEKHG5 (11743358_a_at) / Fold change /veh PLEKHG5 (11743358_a_at) / RFU ZSCAN30 (11745921_a_at) / Fold change /veh ZSCAN30 (11745921_a_at) / RFU CMKLR1 (11741424_a_at) / Fold change /veh CMKLR1 (11741424_a_at) / RFU LOC101060620 /// MAPK8IP1 (11723275_at) / Fold change /veh LOC101060620 /// MAPK8IP1 (11723275_at) / RFU SPTSSB (11747773_x_at) / Fold change /veh SPTSSB (11747773_x_at) / RFU PRSS12 (11739890_at) / Fold change /veh PRSS12 (11739890_at) / RFU BIN1 (11741810_x_at) / Fold change /veh BIN1 (11741810_x_at) / RFU WNT11 (11732464_a_at) / Fold change /veh WNT11 (11732464_a_at) / RFU C10orf10 (11716521_a_at) / Fold change /veh C10orf10 (11716521_a_at) / RFU C5orf56 (11738089_at) / Fold change /veh C5orf56 (11738089_at) / RFU CYB561 (11721691_x_at) / Fold change /veh CYB561 (11721691_x_at) / RFU ANKRD19P (11752326_a_at) / Fold change /veh ANKRD19P (11752326_a_at) / RFU OR2T12 /// OR2T33 /// OR2T8 (11738714_s_at) / Fold change /veh OR2T12 /// OR2T33 /// OR2T8 (11738714_s_at) / RFU VCAN (11748164_a_at) / Fold change /veh VCAN (11748164_a_at) / RFU JSRP1 (11732532_at) / Fold change /veh JSRP1 (11732532_at) / RFU KRTAP10-11 (11738290_x_at) / Fold change /veh KRTAP10-11 (11738290_x_at) / RFU MYO3A (11730013_a_at) / Fold change /veh MYO3A (11730013_a_at) / RFU EBF3 (11725865_a_at) / Fold change /veh EBF3 (11725865_a_at) / RFU CAMK2N1 (11719241_x_at) / Fold change /veh CAMK2N1 (11719241_x_at) / RFU C5orf56 (11738088_a_at) / Fold change /veh C5orf56 (11738088_a_at) / RFU OLFML3 (11715873_a_at) / Fold change /veh OLFML3 (11715873_a_at) / RFU LOC100653217 /// NTM (11731650_a_at) / Fold change /veh LOC100653217 /// NTM (11731650_a_at) / RFU MAPK11 (11762145_a_at) / Fold change /veh MAPK11 (11762145_a_at) / RFU FIZ1 (11724087_x_at) / Fold change /veh FIZ1 (11724087_x_at) / RFU OASL (11726364_x_at) / Fold change /veh OASL (11726364_x_at) / RFU SOX15 (11748057_x_at) / Fold change /veh SOX15 (11748057_x_at) / RFU CD79A (11719716_a_at) / Fold change /veh CD79A (11719716_a_at) / RFU HIST1H1D (11736915_at) / Fold change /veh HIST1H1D (11736915_at) / RFU CASKIN2 (11723855_a_at) / Fold change /veh CASKIN2 (11723855_a_at) / RFU LOC730098 (11760151_x_at) / Fold change /veh LOC730098 (11760151_x_at) / RFU OR4N2 (11742367_at) / Fold change /veh OR4N2 (11742367_at) / RFU PRRT2 (11749266_a_at) / Fold change /veh PRRT2 (11749266_a_at) / RFU SNX32 (11753110_a_at) / Fold change /veh SNX32 (11753110_a_at) / RFU CDHR5 (11726645_a_at) / Fold change /veh CDHR5 (11726645_a_at) / RFU RCAN1 (11760418_a_at) / Fold change /veh RCAN1 (11760418_a_at) / RFU FAM167A (11723789_a_at) / Fold change /veh FAM167A (11723789_a_at) / RFU FAM26E (11764081_at) / Fold change /veh FAM26E (11764081_at) / RFU ISYNA1 (11749810_s_at) / Fold change /veh ISYNA1 (11749810_s_at) / RFU ACY1 (11761880_at) / Fold change /veh ACY1 (11761880_at) / RFU 11764098_at / Fold change /veh 11764098_at / RFU SAMD14 (11745864_x_at) / Fold change /veh SAMD14 (11745864_x_at) / RFU NPB (11741838_a_at) / Fold change /veh NPB (11741838_a_at) / RFU TMPRSS6 (11731388_a_at) / Fold change /veh TMPRSS6 (11731388_a_at) / RFU KRTAP10-2 (11738614_at) / Fold change /veh KRTAP10-2 (11738614_at) / RFU ARHGAP8 /// PRR5-ARHGAP8 (11727945_x_at) / Fold change /veh ARHGAP8 /// PRR5-ARHGAP8 (11727945_x_at) / RFU KRTAP5-7 /// NADSYN1 (11734609_at) / Fold change /veh KRTAP5-7 /// NADSYN1 (11734609_at) / RFU RASL12 (11751679_a_at) / Fold change /veh RASL12 (11751679_a_at) / RFU CDKN2B (11736163_a_at) / Fold change /veh CDKN2B (11736163_a_at) / RFU PRF1 (11729649_at) / Fold change /veh PRF1 (11729649_at) / RFU, ZNF638 /// ZNF638-IT1 / Fold change vs veh, ZNF638 /// ZNF638-IT1 / RFU, PANK3 / Fold change vs veh, PANK3 / RFU, SH3YL1 / Fold change vs veh, SH3YL1 / RFU, ZEB2 / Fold change vs veh, ZEB2 / RFU, NRIP1 / Fold change vs veh, NRIP1 / RFU, PTTG1IP / Fold change vs veh, PTTG1IP / RFU, CAPN2 / Fold change vs veh, CAPN2 / RFU, MED14 / Fold change vs veh, MED14 / RFU, SNORA58 / Fold change vs veh, SNORA58 / RFU, C1orf63 / Fold change vs veh, C1orf63 / RFU, LRRFIP1 / Fold change vs veh, LRRFIP1 / RFU, NDUFAF7 / Fold change vs veh, NDUFAF7 / RFU, SLC12A2 / Fold change vs veh, SLC12A2 / RFU, IBTK / Fold change vs veh, IBTK / RFU, ESF1 / Fold change vs veh, ESF1 / Fold change vs veh, TMEM50B / RFU, TAOK1 / Fold change vs veh, TAOK1 / RFU, ACBD3 / Fold change vs veh, ACBD3 / RFU, TMA16 / Fold change vs veh, TMA16 / RFU, RWDD3 / Fold change vs veh, RWDD3 / RFU, BCAT1 / Fold change vs veh, BCAT1 / RFU, EDEM3 / Fold change vs veh, EDEM3 / RFU, TMEM33 / Fold change vs veh, TMEM33 / RFU, WDR75 / Fold change vs veh, WDR75 / RFU, AHCTF1 / Fold change vs veh, AHCTF1 / RFU, TFRC / Fold change vs veh, TFRC / RFU, ZDHHC17 / Fold change vs veh, ZDHHC17 / RFU, NOM1 / Fold change vs veh, NOM1 / RFU, ARL8B / Fold change vs veh, ARL8B / RFU, ZBTB11 / Fold change vs veh, ZBTB11 / RFU, TAMM41 / Fold change vs veh, TAMM41 / RFU, KIAA1704 /// LOC100996395 / Fold change vs veh, KIAA1704 /// LOC100996395 / RFU, ING1 / Fold change vs veh, ING1 / RFU, TRMT61B / Fold change vs veh, TRMT61B / RFU, FUBP3 / Fold change vs veh, FUBP3 / RFU, TP53 / Fold change vs veh, TP53 / RFU, TNKS2 / Fold change vs veh, TNKS2 / RFU, ZFP14 / Fold change vs veh, ZFP14 / RFU, ACTR2 / Fold change vs veh, ACTR2 / RFU, PPP3R1 / Fold change vs veh, PPP3R1 / RFU, PIK3R1 / Fold change vs veh, PIK3R1 / RFU, HNRNPA1 / Fold change vs veh, HNRNPA1 / RFU, RNF170 / Fold change vs veh, RNF170 / RFU, ZNF28 / Fold change vs veh, ZNF28 / RFU, RNGTT / Fold change vs veh, RNGTT / RFU, OGT / Fold change vs veh, OGT / RFU, BRD1 / Fold change vs veh, BRD1 / RFU, MARS / Fold change vs veh, MARS / RFU, ZNF655 / Fold change vs veh, ZNF655 / RFU, FAHD1 / Fold change vs veh, FAHD1 / RFU, BDP1 / Fold change vs veh, BDP1 / RFU, LRRCC1 / Fold change vs veh, LRRCC1 / RFU, ARID1A / Fold change vs veh, ARID1A / RFU, ZNF146 / Fold change vs veh, ZNF146 / RFU, ZNF330 / Fold change vs veh, ZNF330 / RFU, GPN3 / Fold change vs veh, GPN3 / RFU, C9orf123 / Fold change vs veh, C9orf123 / RFU, N4BP2L2 / Fold change vs veh, N4BP2L2 / RFU, ARFIP1 / Fold change vs veh, ARFIP1 / RFU, FAM179B / Fold change vs veh, FAM179B / RFU, BCL10 / Fold change vs veh, BCL10 / RFU, UHRF1BP1L / Fold change vs veh, UHRF1BP1L / RFU, BET1 / Fold change vs veh, BET1 / RFU, CNOT2 / Fold change vs veh, CNOT2 / RFU, ZNF268 / Fold change vs veh, ZNF268 / Fold change vs veh, ZNF507 / RFU, DGCR2 / Fold change vs veh, DGCR2 / RFU, WDSUB1 / Fold change vs veh, WDSUB1 / Fold change vs veh, HSP90B1 /// MIR3652 / RFU, ADSS / Fold change vs veh, ADSS / RFU, GK / Fold change vs veh, GK / RFU, ZNF148 / Fold change vs veh, ZNF148 / RFU, TAF9 / Fold change vs veh, TAF9 / RFU, SLC1A5 / Fold change vs veh, SLC1A5 / RFU, SLMO2 / Fold change vs veh, SLMO2 / RFU, ABCC4 / Fold change vs veh, ABCC4 / RFU, LOC101060439 /// RAP1B / Fold change vs veh, LOC101060439 /// RAP1B / RFU, RFX7 / Fold change vs veh, RFX7 / RFU, GTPBP10 / Fold change vs veh, GTPBP10 / RFU, CNEP1R1 / Fold change vs veh, CNEP1R1 / RFU, BIVM-ERCC5 /// ERCC5 / Fold change vs veh, BIVM-ERCC5 /// ERCC5 / RFU, ILF3 / Fold change vs veh, ILF3 / RFU 11762660_at / Fold change /veh 11762660_at / RFU VCAN (11757783_s_at) / Fold change /veh VCAN (11757783_s_at) / RFU DDX43 (11728927_at) / Fold change /veh DDX43 (11728927_at) / RFU KRT8 (11758188_x_at) / Fold change /veh KRT8 (11758188_x_at) / RFU NKD1 (11759106_at) / Fold change /veh NKD1 (11759106_at) / RFU SRD5A1 (11742802_a_at) / Fold change /veh SRD5A1 (11742802_a_at) / RFU TPSAB1 /// TPSB2 (11721975_s_at) / Fold change /veh TPSAB1 /// TPSB2 (11721975_s_at) / RFU GSTM3 (11746129_a_at) / Fold change /veh GSTM3 (11746129_a_at) / RFU IL23R (11737362_x_at) / Fold change /veh IL23R (11737362_x_at) / RFU TMEM51 (11727254_a_at) / Fold change /veh TMEM51 (11727254_a_at) / RFU PIWIL2 (11732686_x_at) / Fold change /veh PIWIL2 (11732686_x_at) / RFU ORM1 (11744905_x_at) / Fold change /veh ORM1 (11744905_x_at) / RFU CCDC152 (11743942_at) / Fold change /veh CCDC152 (11743942_at) / RFU ECM1 (11717891_a_at) / Fold change /veh ECM1 (11717891_a_at) / RFU IL23R (11748794_a_at) / Fold change /veh IL23R (11748794_a_at) / RFU TNFAIP8L3 (11732012_x_at) / Fold change /veh TNFAIP8L3 (11732012_x_at) / RFU MBOAT4 (11741988_at) / Fold change /veh MBOAT4 (11741988_at) / RFU 11764193_at / Fold change /veh 11764193_at / RFU TMEM53 (11763286_at) / Fold change /veh TMEM53 (11763286_at) / RFU MAGEB2 (11727129_at) / Fold change /veh MAGEB2 (11727129_at) / RFU TMEM200A (11744735_a_at) / Fold change /veh TMEM200A (11744735_a_at) / RFU CCDC152 (11751479_a_at) / Fold change /veh CCDC152 (11751479_a_at) / RFU FAM211A (11726209_a_at) / Fold change /veh FAM211A (11726209_a_at) / RFU RGS16 (11746705_a_at) / Fold change /veh RGS16 (11746705_a_at) / RFU VCAN (11755009_s_at) / Fold change /veh VCAN (11755009_s_at) / RFU RHOB (11743442_s_at) / Fold change /veh RHOB (11743442_s_at) / RFU RGS16 (11720943_a_at) / Fold change /veh RGS16 (11720943_a_at) / RFU RGS16 (11720944_at) / Fold change /veh RGS16 (11720944_at) / RFU, VPS4B / Fold change vs veh, VPS4B / RFU, CREB1 / Fold change vs veh, CREB1 / RFU, DNAJC13 / Fold change vs veh, DNAJC13 / RFU, GNAQ / Fold change vs veh, GNAQ / RFU, CDK5R1 / Fold change vs veh, CDK5R1 / RFU, ZRANB3 / Fold change vs veh, ZRANB3 / RFU, CUL4A / Fold change vs veh, CUL4A / RFU, CCNY / Fold change vs veh, CCNY / RFU, UFL1 / Fold change vs veh, UFL1 / RFU, COG3 / Fold change vs veh, COG3 / RFU, DIAPH2 / Fold change vs veh, DIAPH2 / RFU, SKA2 / Fold change vs veh, SKA2 / RFU, AFF3 / Fold change vs veh, AFF3 / RFU, LMF1 / Fold change vs veh, LMF1 / RFU, IPO11 / Fold change vs veh, IPO11 / RFU, DFFB / Fold change vs veh, DFFB / RFU, FOXP1 / Fold change vs veh, FOXP1 / RFU, CARD8 / Fold change vs veh, CARD8 / RFU, STRN3 / Fold change vs veh, STRN3 / RFU, ADK / Fold change vs veh, ADK / RFU, RASSF2 / Fold change vs veh, RASSF2 / RFU, WIPF1 / Fold change vs veh, WIPF1 / RFU, LARP1B / Fold change vs veh, LARP1B / RFU, RASA1 / Fold change vs veh, RASA1 / RFU, RB1 / Fold change vs veh, RB1 / RFU, PPFIA1 / Fold change vs veh, PPFIA1 / RFU, MAT2A / Fold change vs veh, MAT2A / RFU, CCT5 / Fold change vs veh, CCT5 / RFU, WDR92 / Fold change vs veh, WDR92 / RFU, CUX1 / Fold change vs veh, CUX1 / RFU, TTC7A / Fold change vs veh, TTC7A / RFU, TMEM135 / Fold change vs veh, TMEM135 / RFU, DEPTOR / Fold change vs veh, DEPTOR / RFU, CPM / Fold change vs veh, CPM / RFU, DNAJB6 / Fold change vs veh, DNAJB6 / RFU, CACNA2D3 / Fold change vs veh, CACNA2D3 / RFU, DTX4 / Fold change vs veh, DTX4 / RFU, TFCP2 / Fold change vs veh, TFCP2 / RFU, GMCL1 /// GMCL1P1 / Fold change vs veh, GMCL1 /// GMCL1P1 / RFU, AEBP2 / Fold change vs veh, AEBP2 / RFU, SNHG1 /// SNORD22 /// SNORD25 /// SNORD26 /// SNORD27 /// SNORD28 /// SNORD29 /// SNORD31 / Fold change vs veh, SNHG1 /// SNORD22 /// SNORD25 /// SNORD26 /// SNORD27 /// SNORD28 /// SNORD29 /// SNORD31 / Fold change (Aza/veh), C12orf56 (ProbeSet 11735607_a_at) / Fold change (ACY-1035/veh), C12orf56 (ProbeSet 11735607_a_at) / Fold change (Aza/veh), FGFR1OP (ProbeSet 11751329_s_at) / Fold change (ACY-1035/veh), FGFR1OP (ProbeSet 11751329_s_at) / Fold change (Aza/veh), VPS36 (ProbeSet 11739960_a_at) / Fold change (ACY-1035/veh), VPS36 (ProbeSet 11739960_a_at) / RFU SYPL1 (11715823_x_at) / Fold change /veh SYPL1 (11715823_x_at) / RFU IGFBP7 (11715501_s_at) / Fold change /veh IGFBP7 (11715501_s_at) / RFU REEP3 (11722064_at) / Fold change /veh REEP3 (11722064_at) / RFU IGLL1 (11728026_x_at) / Fold change /veh IGLL1 (11728026_x_at): dose or concentration left out as unconfirmed
Conditions: MV-4-11 cells, 48 hours

Nc1ccc(-c2cccs2)cc1NC(=O)c1ccc2c(c1)cc(C1CC1)n2CCN1CCOCC1 [ACY-1035]
Fold change /veh VCAN (11755009_s_at): 1.16
